# Biological target: α-glucosidase
# Test: p-NPG colorimetric enzyme assay, […] nm, commercial α-glucosidase
# Assay type: biochemical
smiles,measurement,value
"CC(C)=CCC[C@](C)(O[C@@H]1O[C@H](CO)[C@@H](O)[C@H](O)[C@H]1O)[C@H]1CC[C@]2(C)[C@@H]1[C@H](O)C[C@@H]1[C@@]3(C)CC[C@H](O)C(C)(C)[C@@H]3CC[C@]12C [CK, ginsenoside CK]",IC50,22.83 µg/mL

# — paper PMC11767077, “Experimental Validation of Antiobesogenic and Osteoprotective Efficacy of Ginsenoside CK via Targeting Lipid and Atherosclerosis Pathways” (Life, 2024)
